Laboratory results published in PMC7998563 (Viruses, 2021).

Biological target: T1, HCMV core nuclear egress complex (core NEC), pUL50-pUL53 (Human herpesvirus 5 strain AD169, UniProt P16791+P16794)
T1 construct: gene NEC2; pUL50 His-tagged, pUL53 coated on plate; heterodimer
Test: ELISA-type pUL50-pUL53 interaction inhibition assay, anti-His-HRP detection
Assay type: binding

T1 sequence (P16791 1-181): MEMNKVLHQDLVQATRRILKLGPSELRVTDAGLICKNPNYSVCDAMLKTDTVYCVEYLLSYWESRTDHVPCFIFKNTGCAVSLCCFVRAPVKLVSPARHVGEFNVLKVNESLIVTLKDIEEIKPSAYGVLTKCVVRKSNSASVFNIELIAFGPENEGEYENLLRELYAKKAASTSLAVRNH
T1 sequence (P16794 50-292): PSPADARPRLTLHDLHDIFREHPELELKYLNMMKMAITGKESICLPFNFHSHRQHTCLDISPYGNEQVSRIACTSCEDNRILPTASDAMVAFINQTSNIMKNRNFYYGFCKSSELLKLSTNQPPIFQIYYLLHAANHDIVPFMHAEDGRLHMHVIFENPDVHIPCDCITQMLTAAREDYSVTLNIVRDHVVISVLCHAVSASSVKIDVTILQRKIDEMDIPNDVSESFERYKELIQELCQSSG

In the case of `O=C(O)c1ccccc1-c1c2cc(Br)c(=O)[c]([Hg+])c-2oc2cc(O)c(Br)cc12` [P10G08, merbromin], the IC50 is reported as 38 nM.
